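Dose response: 5 concentrations. Exposure: 48 h. Format: 96-well plates. Endpoint: linear interpolation; highest concentration if not reached. GI50 = concentration required for 50% inhibition of growth. TGI is the concentration that stops growth completely.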
Experiments:
Experiment in all cases: NCI tumour cell line growth inhibition, 48 h; in the data active = GI50 below about 0.43 µM; inactive = the rest
786-0 renal = system: 786-0 renal
OVCAR-5 ovarian = system: OVCAR-5 ovarian
A549 NSCLC = system: A549 NSCLC
UO-31 renal = system: UO-31 renal
SK-MEL-28 melanoma = system: SK-MEL-28 melanoma
HCC-2998 colon = system: HCC-2998 colon
MDA-MB-435 = system: MDA-MB-435
OVCAR-4 ovarian = system: OVCAR-4 ovarian
HOP-92 NSCLC = system: HOP-92 NSCLC
MOLT-4 leukemia = system: MOLT-4 leukemia
M14 melanoma = system: M14 melanoma
A498 renal = system: A498 renal
TK-10 renal = system: TK-10 renal
T-47D breast = system: T-47D breast
U251 CNS = system: U251 CNS
HOP-62 NSCLC = system: HOP-62 NSCLC
MDA-MB-231 breast = system: MDA-MB-231 breast
RXF 393 renal = system: RXF 393 renal
SF-268 CNS = system: SF-268 CNS
SK-MEL-2 melanoma = system: SK-MEL-2 melanoma
CAKI-1 renal = system: CAKI-1 renal
NCI-H522 lung = system: NCI-H522 lung
ACHN renal = system: ACHN renal
SK-OV-3 ovarian = system: SK-OV-3 ovarian
SF-539 CNS = system: SF-539 CNS
COLO 205 colon = system: COLO 205 colon
SN12C renal = system: SN12C renal
KM12 colon = system: KM12 colon
SR leukemia = system: SR leukemia
NCI-H23 lung = system: NCI-H23 lung
SW-620 colon = system: SW-620 colon
HCT-15 colon = system: HCT-15 colon
UACC-257 melanoma = system: UACC-257 melanoma
MALME-3M melanoma = system: MALME-3M melanoma
NCI-H226 lung = system: NCI-H226 lung
MCF7 breast = system: MCF7 breast
OVCAR-8 ovarian = system: OVCAR-8 ovarian
PC-3 prostate = system: PC-3 prostate
UACC-62 melanoma = system: UACC-62 melanoma
K-562 leukemia = system: K-562 leukemia
IGROV1 ovarian = system: IGROV1 ovarian
CCRF-CEM leukemia = system: CCRF-CEM leukemia
SNB-19 CNS = system: SNB-19 CNS
NCI/ADR-RES ovarian = system: NCI/ADR-RES ovarian
HCT-116 colon = system: HCT-116 colon
OVCAR-3 ovarian = system: OVCAR-3 ovarian
DU-145 prostate = system: DU-145 prostate
HL-60(TB) leukemia = system: HL-60(TB) leukemia
HS 578T breast = system: HS 578T breast
HT29 colon = system: HT29 colon

C=C1c2c(C)nn(-c3ccc(OC)cc3)c2N(C)C23C[C@@H]1C1(C)c4c(C)nn(-c5ccc(OC)cc5)c4N(C)C(C)(C[C@H]12)C3 (some centres undefined)
9.94 µM: TGI (SK-MEL-2 melanoma)
> 100 µM: TGI (OVCAR-5 ovarian) | TGI (UO-31 renal) | TGI (SK-MEL-28 melanoma) | TGI (HCC-2998 colon) | TGI (MDA-MB-435) | TGI (MOLT-4 leukemia) | TGI (M14 melanoma) | TGI (T-47D breast) | TGI (CAKI-1 renal) | TGI (SN12C renal) | TGI (KM12 colon) | TGI (SR leukemia) | TGI (SW-620 colon) | TGI (HCT-15 colon) | TGI (UACC-257 melanoma) | TGI (MALME-3M melanoma) | TGI (MCF7 breast) | TGI (UACC-62 melanoma) | TGI (K-562 leukemia) | TGI (IGROV1 ovarian) | TGI (CCRF-CEM leukemia) | TGI (NCI/ADR-RES ovarian) | TGI (OVCAR-3 ovarian) | TGI (DU-145 prostate) | TGI (HL-60(TB) leukemia) | TGI (HT29 colon)
7.77 µM: TGI (PC-3 prostate)
39.3 µM: TGI (OVCAR-8 ovarian)
5.11 µM: TGI (COLO 205 colon)
12.8 µM: TGI (HCT-116 colon)
18.9 µM: TGI (HOP-62 NSCLC)
15.7 µM: TGI (MDA-MB-231 breast)
77.4 µM: TGI (HS 578T breast)
6.08 µM: TGI (RXF 393 renal)
54.6 µM: TGI (OVCAR-4 ovarian)
55.7 µM: TGI (A549 NSCLC)
16.2 µM: TGI (SK-OV-3 ovarian)
11.8 µM: TGI (TK-10 renal)
11 µM: TGI (NCI-H522 lung)
55.8 µM: TGI (SNB-19 CNS)
5.4 µM: TGI (HOP-92 NSCLC)
19.7 µM: TGI (786-0 renal)
19 µM: TGI (ACHN renal)
63 µM: TGI (NCI-H226 lung)
inactive: GI50 (786-0 renal) 4.23 µM | GI50 (OVCAR-5 ovarian) 11.3 µM | GI50 (A549 NSCLC) 2.69 µM | GI50 (UO-31 renal) 2.61 µM | GI50 (SK-MEL-28 melanoma) 5.86 µM | GI50 (HCC-2998 colon) 4.07 µM | GI50 (MDA-MB-435) 3.4 µM | GI50 (OVCAR-4 ovarian) 3.56 µM | GI50 (HOP-92 NSCLC) 1.18 µM | GI50 (MOLT-4 leukemia) 2.6 µM | GI50 (M14 melanoma) 3.88 µM | GI50 (A498 renal) 2.47 µM | GI50 (TK-10 renal) 3.63 µM | GI50 (T-47D breast) 1.81 µM | GI50 (U251 CNS) 2.67 µM | GI50 (HOP-62 NSCLC) 4.28 µM | GI50 (MDA-MB-231 breast) 3.11 µM | GI50 (RXF 393 renal) 1.9 µM | GI50 (SF-268 CNS) 3.63 µM | GI50 (SK-MEL-2 melanoma) 3.23 µM | GI50 (CAKI-1 renal) 2.67 µM | GI50 (NCI-H522 lung) 2.77 µM | GI50 (ACHN renal) 3.3 µM | GI50 (SK-OV-3 ovarian) 3.39 µM | GI50 (SF-539 CNS) 3.16 µM | GI50 (COLO 205 colon) 2.2 µM | GI50 (SN12C renal) 3.65 µM | GI50 (KM12 colon) 3.75 µM | GI50 (SR leukemia) 3.16 µM | GI50 (NCI-H23 lung) 3.86 µM | GI50 (SW-620 colon) 3.63 µM | GI50 (HCT-15 colon) 3.11 µM | GI50 (UACC-257 melanoma) 2.68 µM | GI50 (MALME-3M melanoma) 3.24 µM | GI50 (NCI-H226 lung) 4.44 µM | GI50 (MCF7 breast) 2.69 µM | GI50 (OVCAR-8 ovarian) 3.4 µM | GI50 (PC-3 prostate) 1.75 µM | GI50 (UACC-62 melanoma) 2.86 µM | GI50 (K-562 leukemia) 3.6 µM | GI50 (IGROV1 ovarian) 7.54 µM | GI50 (CCRF-CEM leukemia) 3.41 µM | GI50 (SNB-19 CNS) 4.34 µM | GI50 (NCI/ADR-RES ovarian) 4.04 µM | GI50 (HCT-116 colon) 2.82 µM | GI50 (OVCAR-3 ovarian) 3.27 µM | GI50 (DU-145 prostate) 4.38 µM | GI50 (HL-60(TB) leukemia) 2.54 µM | GI50 (HS 578T breast) 6.23 µM | GI50 (HT29 colon) 3.24 µM
16.4 µM: TGI (A498 renal)
70.5 µM: TGI (SF-268 CNS)
53.6 µM: TGI (NCI-H23 lung)
16.8 µM: TGI (SF-539 CNS)
